# Target: T1, Serine protease 1 (Bos taurus, UniProt P00760)
# T1 sequence (P00760 whole entry): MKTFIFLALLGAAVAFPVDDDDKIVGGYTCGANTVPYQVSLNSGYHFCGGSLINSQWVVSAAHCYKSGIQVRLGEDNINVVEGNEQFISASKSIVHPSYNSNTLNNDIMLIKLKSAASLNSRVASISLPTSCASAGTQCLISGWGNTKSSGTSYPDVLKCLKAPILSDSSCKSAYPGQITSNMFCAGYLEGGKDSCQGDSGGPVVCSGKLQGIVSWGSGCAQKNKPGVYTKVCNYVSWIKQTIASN
# Assay: Enzyme Inhibition Assay
# Protocol: The enzyme activities were determined kinetically as the initial rate of cleavage of a peptide p-nitroanilide. Km for enzyme and substrate was determined using four substrate dilutions. Enzyme was incubated with test compounds for 10 min; the reaction was then started by the addition of the substrate. […] IC50 values for inhibitors were determined from the dose response curve by fitting the data to the Hill equation. Ki,app values were calculated as the IC50/2, with the IC50 value determined at a substrate concentration equal to Km
row,SMILES,Ki [µM]
1,O=C(O)CN1CCN(Cc2ccc3c(Cl)c(C(=O)Nc4ccc(Cl)cc4C(=O)Nc4ccc(Cl)cc4)sc3c2)CC1 [2-(4-{[3-chloro-2-({4-chloro-2-[(4-chlorophenyl)carbamoyl]phenyl}carbamoyl)-1-benzothiophen-6-yl]methyl}piperazin-1-yl)acetic acid],> 5
2,O=C(Nc1ccc(Cl)cc1)c1cc(Cl)ccc1NC(=O)c1sc2ccccc2c1Cl [3-chloro-N-{4-chloro-2-[(4-chlorophenyl)carbamoyl]phenyl}-1-benzothiophene-2-carboxamide],> 5
3,"O=C(Nc1ccc(Cl)cc1)c1cc(Cl)ccc1NC(=O)c1scc(Cn2ccnn2)c1Cl [3-chloro-N-{4-chloro-2-[(4-chlorophenyl)carbamoyl]phenyl}-4-(1H-1,2,3-triazol-1-ylmethyl)thiophene-2-carboxamide]",> 5
4,"O=C(Nc1ccc(Cl)cc1)c1cc(Cl)ccc1NC(=O)c1scc(Cn2cncn2)c1Cl [3-chloro-N-{4-chloro-2-[(4-chlorophenyl)carbamoyl]phenyl}-4-(1H-1,2,4-triazol-1-ylmethyl)thiophene-2-carboxamide]",> 5
5,O=C(Nc1ccc(Cl)cc1)c1cc(Cl)ccc1NC(=O)c1scc(Cn2ccnc2)c1Cl [3-chloro-N-{4-chloro-2-[(4-chlorophenyl)carbamoyl]phenyl}-4-(1H-imidazol-1-ylmethyl)thiophene-2-carboxamide],> 5
6,O=C(Nc1ccc(Cl)cc1)c1cc(Cl)ccc1NC(=O)c1scc(Cn2cccn2)c1Cl [3-chloro-N-{4-chloro-2-[(4-chlorophenyl)carbamoyl]phenyl}-4-(1H-pyrazol-1-ylmethyl)thiophene-2-carboxamide],> 5
7,"O=C(Nc1ccc(Cl)cc1)c1cc(Cl)ccc1NC(=O)c1scc(Cn2ncnn2)c1Cl [3-chloro-N-{4-chloro-2-[(4-chlorophenyl)carbamoyl]phenyl}-4-(2H-1,2,3,4-tetrazol-2-ylmethyl)thiophene-2-carboxamide]",> 5
8,"O=C(Nc1ccc(Cl)cc1)c1cc(Cl)ccc1NC(=O)c1scc(Cn2nccn2)c1Cl [3-chloro-N-{4-chloro-2-[(4-chlorophenyl)carbamoyl]phenyl}-4-(2H-1,2,3-triazol-2-ylmethyl)thiophene-2-carboxamide]",> 5
9,CS(=O)(=O)Cc1csc(C(=O)Nc2ccc(Cl)cc2C(=O)Nc2ccc(Cl)cc2)c1Cl [3-chloro-N-{4-chloro-2-[(4-chlorophenyl)carbamoyl]phenyl}-4-(methanesulfonylmethyl)thiophene-2-carboxamide],> 5
10,O=C(Nc1ccc(Cl)cc1)c1cc(Cl)ccc1NC(=O)c1scc(CN2CCOCC2)c1Cl [3-chloro-N-{4-chloro-2-[(4-chlorophenyl)carbamoyl]phenyl}-4-(morpholin-4-ylmethyl)thiophene-2-carboxamide],> 5
11,O=C(Nc1ccc(Cl)cc1)c1cc(Cl)ccc1NC(=O)c1scc(CN2CCSCC2)c1Cl [3-chloro-N-{4-chloro-2-[(4-chlorophenyl)carbamoyl]phenyl}-4-(thiomorpholin-4-ylmethyl)thiophene-2-carboxamide],> 5
12,O=C(Nc1ccc(Cl)cc1)c1cc(Cl)ccc1NC(=O)c1scc(CNCCCn2ccnc2)c1Cl [3-chloro-N-{4-chloro-2-[(4-chlorophenyl)carbamoyl]phenyl}-4-({[3-(1H-imidazol-1-yl)propyl]amino}methyl)thiophene-2-carboxamide],> 5
13,COCCOCc1csc(C(=O)Nc2ccc(Cl)cc2C(=O)Nc2ccc(Cl)cc2)c1Cl [3-chloro-N-{4-chloro-2-[(4-chlorophenyl)carbamoyl]phenyl}-4-[(2-methoxyethoxy)methyl]thiophene-2-carboxamide],> 5
14,CC(=O)N1CCN(Cc2csc(C(=O)Nc3ccc(Cl)cc3C(=O)Nc3ccc(Cl)cc3)c2Cl)CC1 [3-chloro-N-{4-chloro-2-[(4-chlorophenyl)carbamoyl]phenyl}-4-[(4-acetylpiperazin-1-yl)methyl]thiophene-2-carboxamide],> 5
15,CCN1CCN(Cc2csc(C(=O)Nc3ccc(Cl)cc3C(=O)Nc3ccc(Cl)cc3)c2Cl)CC1 [3-chloro-N-{4-chloro-2-[(4-chlorophenyl)carbamoyl]phenyl}-4-[(4-ethylpiperazin-1-yl)methyl]thiophene-2-carboxamide],> 5
16,Cc1cccc2sc(C(=O)Nc3ccc(Cl)cc3C(=O)Nc3ccc(Cl)cc3)c(Cl)c12 [3-chloro-N-{4-chloro-2-[(4-chlorophenyl)carbamoyl]phenyl}-4-methyl-1-benzothiophene-2-carboxamide],> 5
17,Cc1csc(C(=O)Nc2ccc(Cl)cc2C(=O)Nc2ccc(Cl)cc2)c1Cl [3-chloro-N-{4-chloro-2-[(4-chlorophenyl)carbamoyl]phenyl}-4-methylthiophene-2-carboxamide],> 5
18,COCCOCCOCc1csc(C(=O)Nc2ccc(Cl)cc2C(=O)Nc2ccc(Cl)cc2)c1Cl [3-chloro-N-{4-chloro-2-[(4-chlorophenyl)carbamoyl]phenyl}-4-{[2-(2-methoxyethoxy)ethoxy]methyl}thiophene-2-carboxamide],> 5
19,"CC1(C)OCC(COCc2csc(C(=O)Nc3ccc(Cl)cc3C(=O)Nc3ccc(Cl)cc3)c2Cl)O1 (stereo not drawn) [3-chloro-N-{4-chloro-2-[(4-chlorophenyl)carbamoyl]phenyl}-4-{[(2,2-dimethyl-1,3-dioxolan-4-yl)methoxy]methyl}thiophene-2-carboxamide]",> 5
20,O=C(Nc1ccc(Cl)cc1)c1cc(Cl)ccc1NC(=O)c1sc(CN2CCOCC2)cc1Cl [3-chloro-N-{4-chloro-2-[(4-chlorophenyl)carbamoyl]phenyl}-5-(morpholin-4-ylmethyl)thiophene-2-carboxamide],> 5
21,CN1CCN(Cc2cc(Cl)c(C(=O)Nc3ccc(Cl)cc3C(=O)Nc3ccc(Cl)cc3)s2)CC1 [3-chloro-N-{4-chloro-2-[(4-chlorophenyl)carbamoyl]phenyl}-5-[(4-methylpiperazin-1-yl)methyl]thiophene-2-carboxamide],> 5
22,CN1CCN(Cc2ccc3c(Cl)c(C(=O)Nc4ccc(Cl)cc4C(=O)Nc4ccc(Cl)cc4)sc3c2)CC1 [3-chloro-N-{4-chloro-2-[(4-chlorophenyl)carbamoyl]phenyl}-6-[(4-methylpiperazin-1-yl)methyl]-1-benzothiophene-2-carboxamide],> 5

# Now from value to compound:
row,Ki [µM],SMILES
1,> 5,C[S+]([O-])Cc1csc(C(=O)Nc2ccc(Cl)cc2C(=O)Nc2ccc(Cl)cc2)c1Cl (stereo not drawn) [3-chloro-N-{4-chloro-2-[(4-chlorophenyl)carbamoyl]phenyl}-4-(methanesulfinylmethyl)thiophene-2-carboxamide]
2,> 5,CN(CCOCCO)Cc1csc(C(=O)Nc2ccc(Cl)cc2C(=O)Nc2ccc(Cl)cc2)c1Cl [3-chloro-N-{4-chloro-2-[(4-chlorophenyl)carbamoyl]phenyl}-4-({[2-(2-hydroxyethoxy)ethyl](methyl)amino}methyl)thiophene-2-carboxamide]
3,> 5,CCN(CC)CCN(C)Cc1csc(C(=O)Nc2ccc(Cl)cc2C(=O)Nc2ccc(Cl)cc2)c1Cl [3-chloro-N-{4-chloro-2-[(4-chlorophenyl)carbamoyl]phenyl}-4-({[2-(diethylamino)ethyl](methyl)amino}methyl)thiophene-2-carboxamide]
4,> 5,CN(C)CCN(C)Cc1csc(C(=O)Nc2ccc(Cl)cc2C(=O)Nc2ccc(Cl)cc2)c1Cl [3-chloro-N-{4-chloro-2-[(4-chlorophenyl)carbamoyl]phenyl}-4-({[2-(dimethylamino)ethyl](methyl)amino}methyl)thiophene-2-carboxamide]
5,> 5,CN(C)CCSCc1csc(C(=O)Nc2ccc(Cl)cc2C(=O)Nc2ccc(Cl)cc2)c1Cl [3-chloro-N-{4-chloro-2-[(4-chlorophenyl)carbamoyl]phenyl}-4-({[2-(dimethylamino)ethyl]sulfanyl}methyl)thiophene-2-carboxamide]
6,> 5,CN(C)CCCN(C)Cc1csc(C(=O)Nc2ccc(Cl)cc2C(=O)Nc2ccc(Cl)cc2)c1Cl [3-chloro-N-{4-chloro-2-[(4-chlorophenyl)carbamoyl]phenyl}-4-({[3-(dimethylamino)propyl](methyl)amino}methyl)thiophene-2-carboxamide]
7,> 5,CN(CCN1CCCC1)Cc1csc(C(=O)Nc2ccc(Cl)cc2C(=O)Nc2ccc(Cl)cc2)c1Cl [3-chloro-N-{4-chloro-2-[(4-chlorophenyl)carbamoyl]phenyl}-4-({methyl[2-(pyrrolidin-1-yl)ethyl]amino}methyl)thiophene-2-carboxamide]
8,> 5,"O=C(Nc1ccc(Cl)cc1)c1cc(Cl)ccc1NC(=O)c1scc(COCC(O)CO)c1Cl (stereo not drawn) [3-chloro-N-{4-chloro-2-[(4-chlorophenyl)carbamoyl]phenyl}-4-[(2,3-dihydroxypropoxy)methyl]thiophene-2-carboxamide]"
9,> 5,CSCc1csc(C(=O)Nc2ccc(Cl)cc2C(=O)Nc2ccc(Cl)cc2)c1Cl [3-chloro-N-{4-chloro-2-[(4-chlorophenyl)carbamoyl]phenyl}-4-[(methylsulfanyl)methyl]thiophene-2-carboxamide]
10,> 5,"CN(Cc1csc(C(=O)Nc2ccc(Cl)cc2C(=O)Nc2ccc(Cl)cc2)c1Cl)CC(O)CO (stereo not drawn) [3-chloro-N-{4-chloro-2-[(4-chlorophenyl)carbamoyl]phenyl}-4-{[(2,3-dihydroxypropyl)(methyl)amino]methyl}thiophene-2-carboxamide]"
11,> 5,CN(CCO)Cc1csc(C(=O)Nc2ccc(Cl)cc2C(=O)Nc2ccc(Cl)cc2)c1Cl [3-chloro-N-{4-chloro-2-[(4-chlorophenyl)carbamoyl]phenyl}-4-{[(2-hydroxyethyl)(methyl)amino]methyl}thiophene-2-carboxamide]

# From BindingDB's records for doi:10.1016/j.bmc.2006.12.019 (Berlex, 2007)
